Measurements from paper PMC6199744, “Development of Chemical Proteomics for the Folateome and Analysis of the Kinetoplastid Folateome” (ACS Infectious Diseases, 2018).
Like-named read-outs stand apart in the source and are kept apart here.

What was measured:
Type in all cases: binding
[1] = target: T1, HeLa cell extract proteins (Homo sapiens, UniProt Q9UBM7)
T1 construct: endogenous in cells; host or cells: HeLa cell extract
T1 sequence (Q9UBM7 1-475): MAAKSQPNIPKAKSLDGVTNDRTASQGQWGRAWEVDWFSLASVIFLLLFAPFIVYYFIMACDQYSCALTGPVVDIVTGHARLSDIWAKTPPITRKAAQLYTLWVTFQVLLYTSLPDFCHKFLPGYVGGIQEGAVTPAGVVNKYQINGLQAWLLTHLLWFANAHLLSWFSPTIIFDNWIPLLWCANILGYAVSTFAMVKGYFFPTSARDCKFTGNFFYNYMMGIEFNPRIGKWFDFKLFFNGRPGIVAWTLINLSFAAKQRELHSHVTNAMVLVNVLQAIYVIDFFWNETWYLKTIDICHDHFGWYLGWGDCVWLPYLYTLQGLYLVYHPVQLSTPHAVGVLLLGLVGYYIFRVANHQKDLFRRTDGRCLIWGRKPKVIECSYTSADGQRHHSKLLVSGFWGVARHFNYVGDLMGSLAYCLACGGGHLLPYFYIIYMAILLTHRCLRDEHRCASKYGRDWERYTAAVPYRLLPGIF

[2] = target: T2, HeLa cell extract proteins (Homo sapiens, UniProt P09972)
T2 construct: endogenous in cells; host or cells: HeLa cell extract
T2 sequence (P09972 1-364): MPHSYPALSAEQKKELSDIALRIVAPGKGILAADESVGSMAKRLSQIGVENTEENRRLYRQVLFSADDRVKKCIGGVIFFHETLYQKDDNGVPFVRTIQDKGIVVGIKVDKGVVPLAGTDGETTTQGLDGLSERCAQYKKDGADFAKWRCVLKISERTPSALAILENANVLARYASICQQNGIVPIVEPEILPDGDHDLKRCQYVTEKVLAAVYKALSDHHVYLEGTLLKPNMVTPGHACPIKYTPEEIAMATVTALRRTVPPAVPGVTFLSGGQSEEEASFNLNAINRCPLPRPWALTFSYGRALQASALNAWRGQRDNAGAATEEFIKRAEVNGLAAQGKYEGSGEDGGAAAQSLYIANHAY

[3] = target: T3, HeLa cell extract proteins (Homo sapiens, UniProt Q6P3X3)
T3 construct: endogenous in cells; host or cells: HeLa cell extract

[4] = target: T4, HeLa cell extract proteins (Homo sapiens, UniProt Q9H479)
T4 construct: endogenous in cells; host or cells: HeLa cell extract
T4 sequence (Q9H479 1-309): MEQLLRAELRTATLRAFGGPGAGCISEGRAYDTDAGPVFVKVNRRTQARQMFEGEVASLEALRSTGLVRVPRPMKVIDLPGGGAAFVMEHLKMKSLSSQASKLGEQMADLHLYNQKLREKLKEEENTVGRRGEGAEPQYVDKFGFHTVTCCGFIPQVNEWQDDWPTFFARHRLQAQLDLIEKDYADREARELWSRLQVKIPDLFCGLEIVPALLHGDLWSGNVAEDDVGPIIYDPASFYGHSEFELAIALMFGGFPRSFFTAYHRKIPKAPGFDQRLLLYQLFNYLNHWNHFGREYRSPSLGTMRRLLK

[5] = target: T5, HeLa cell extract proteins (Homo sapiens, UniProt Q7Z4G4)
T5 construct: endogenous in cells; host or cells: HeLa cell extract
T5 sequence (Q7Z4G4 1-463): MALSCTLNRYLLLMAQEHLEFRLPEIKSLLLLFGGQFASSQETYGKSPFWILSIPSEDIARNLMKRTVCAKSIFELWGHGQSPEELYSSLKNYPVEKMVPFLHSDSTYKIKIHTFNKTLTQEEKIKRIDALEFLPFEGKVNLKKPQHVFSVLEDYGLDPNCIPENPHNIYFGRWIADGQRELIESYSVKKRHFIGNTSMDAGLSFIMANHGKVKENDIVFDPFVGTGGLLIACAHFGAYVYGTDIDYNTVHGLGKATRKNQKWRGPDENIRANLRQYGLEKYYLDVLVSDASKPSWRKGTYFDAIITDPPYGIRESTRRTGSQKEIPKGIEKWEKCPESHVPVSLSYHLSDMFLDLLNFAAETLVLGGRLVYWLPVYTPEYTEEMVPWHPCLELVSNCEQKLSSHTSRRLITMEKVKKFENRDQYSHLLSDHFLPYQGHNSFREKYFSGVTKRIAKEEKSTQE

[6] = target: T6, HeLa cell extract proteins (Homo sapiens, UniProt O00408)
T6 construct: endogenous in cells; host or cells: HeLa cell extract

[7] = target: T7, HeLa cell extract proteins (Homo sapiens, UniProt P07686)
T7 construct: endogenous in cells; host or cells: HeLa cell extract
T7 sequence (P07686 122-556): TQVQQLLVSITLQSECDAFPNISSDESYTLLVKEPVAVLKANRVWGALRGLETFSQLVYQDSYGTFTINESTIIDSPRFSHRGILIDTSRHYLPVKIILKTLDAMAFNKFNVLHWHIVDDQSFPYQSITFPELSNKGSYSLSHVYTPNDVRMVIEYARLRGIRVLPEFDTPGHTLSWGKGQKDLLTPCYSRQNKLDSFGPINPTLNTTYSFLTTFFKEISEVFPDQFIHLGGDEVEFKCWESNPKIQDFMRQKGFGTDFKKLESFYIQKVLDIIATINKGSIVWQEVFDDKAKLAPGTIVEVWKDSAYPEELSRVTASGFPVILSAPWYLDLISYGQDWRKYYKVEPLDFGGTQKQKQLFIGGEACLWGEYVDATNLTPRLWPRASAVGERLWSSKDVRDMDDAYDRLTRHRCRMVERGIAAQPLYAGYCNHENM

[8] = target: T8, HeLa cell extract proteins (Homo sapiens, UniProt P67775)
T8 construct: endogenous in cells; host or cells: HeLa cell extract

[9] = HeLa, protein ALDOC (FRUCTOSE-BI[…] C.)
[10] = HeLa, protein FN3K (FRUCTOSAMINE-3-KINASE)

T8 sequence (P67775 whole entry): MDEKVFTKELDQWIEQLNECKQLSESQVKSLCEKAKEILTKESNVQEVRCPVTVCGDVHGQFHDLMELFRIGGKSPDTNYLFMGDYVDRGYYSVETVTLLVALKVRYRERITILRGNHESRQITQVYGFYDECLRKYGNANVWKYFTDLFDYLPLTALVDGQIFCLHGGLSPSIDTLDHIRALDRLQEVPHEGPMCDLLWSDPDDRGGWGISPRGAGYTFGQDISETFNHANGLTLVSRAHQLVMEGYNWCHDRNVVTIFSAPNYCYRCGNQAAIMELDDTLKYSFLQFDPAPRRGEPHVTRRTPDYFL
T6 sequence (O00408 whole entry): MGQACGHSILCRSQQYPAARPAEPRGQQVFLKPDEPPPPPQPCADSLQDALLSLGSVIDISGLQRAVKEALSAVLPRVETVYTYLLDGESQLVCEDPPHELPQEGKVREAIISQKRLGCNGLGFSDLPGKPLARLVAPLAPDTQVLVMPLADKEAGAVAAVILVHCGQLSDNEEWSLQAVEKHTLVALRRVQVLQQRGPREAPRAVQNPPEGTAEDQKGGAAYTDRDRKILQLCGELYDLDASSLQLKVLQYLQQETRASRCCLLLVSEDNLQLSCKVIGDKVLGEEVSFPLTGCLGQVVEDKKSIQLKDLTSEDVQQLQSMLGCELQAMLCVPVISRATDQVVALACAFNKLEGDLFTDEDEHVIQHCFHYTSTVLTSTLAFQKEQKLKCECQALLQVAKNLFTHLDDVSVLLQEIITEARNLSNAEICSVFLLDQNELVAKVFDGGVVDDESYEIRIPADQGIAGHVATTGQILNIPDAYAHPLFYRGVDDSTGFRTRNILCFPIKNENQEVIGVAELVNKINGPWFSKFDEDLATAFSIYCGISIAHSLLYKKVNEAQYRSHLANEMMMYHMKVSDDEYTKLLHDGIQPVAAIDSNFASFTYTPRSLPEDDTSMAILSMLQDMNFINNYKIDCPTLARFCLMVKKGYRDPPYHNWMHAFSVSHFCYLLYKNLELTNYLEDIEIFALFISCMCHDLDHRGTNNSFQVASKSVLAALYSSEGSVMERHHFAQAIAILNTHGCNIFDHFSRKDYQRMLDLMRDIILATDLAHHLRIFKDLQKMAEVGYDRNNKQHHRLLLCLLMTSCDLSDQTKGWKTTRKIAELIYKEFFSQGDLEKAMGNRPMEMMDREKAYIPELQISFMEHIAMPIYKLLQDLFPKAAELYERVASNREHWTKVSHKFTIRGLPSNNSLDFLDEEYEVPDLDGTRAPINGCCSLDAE

Row | SMILES | fold changes relative to vehicle control ([1]; captured protein DHCR7, HeLa) | fold changes relative to vehicle control ([3]; captured protein TTC27, HeLa) | fold changes relative to vehicle control ([4]; protein FN3K, HeLa) | fold changes relative to vehicle control ([5]; HeLa, protein TRMT11) | fold changes relative to vehicle control ([6]; protein PDE2A, HeLa) | fold changes relative to vehicle control ([7]; HeLa, protein HEXB) | fold changes relative to vehicle control ([8]; HeLa, protein PPP2CA) | fold changes relative to vehicle control ([1]; HeLa, captured protein DHCR7) | fold changes relative to vehicle control ([2]; HeLa, protein ALDOC) | fold changes relative to vehicle control ([3]; protein TTC27, HeLa) | fold changes relative to vehicle control [4, 10] | fold changes relative to vehicle control ([5]; HeLa, captured protein TRMT11) | fold changes relative to vehicle control ([8]; HeLa, captured protein PPP2CA) | other results
1 | Nc1nc2cccc(-c3ccccc3)c2n1Cc1ccc(Cl)c(Cl)c1 [compound 3] | 1.02 | 0.81 | 1.09 | 0.96 | 0.64 | 0.93 | 0.91 | – | – | – | – | – | – | fold changes relative to vehicle control [2, 9]: 1.23 fold
2 | CCCCCCOc1ccc(Cc2cnc(N)nc2N)cc1 [compound 1] | 0.95 | 0.94 | 0.92 | 1.13 | 0.61 | 1.04 | 0.87 | – | – | – | – | – | – | fold changes relative to vehicle control [2, 9]: 1.49 fold
3 | NCCCNc1ccc(C(=O)NC(CCC(=O)O)C(=O)O)cc1 (centres unmarked) [compound 7] | – | – | – | – | 0.7 | 1.06 | – | 0.98 | 1.12 | 0.82 | 0.99 | 1.07 | 0.97 | –
4 | CCCCCCOc1cccc(Cc2cnc(N)nc2N)c1 [compound 2] | 1.03 | 0.92 | 1.06 | 1.19 | 1.7 | 1.06 | 1.02 | – | – | – | – | – | – | fold changes relative to vehicle control ([2]; HeLa, protein ALDOC (FRUCTOSE-BISPHOSPHATE ALDOLASE C.)): 2.35 fold
5 | NCCOCCOCC(=O)Nc1nc2ncc(CNc3ccc(C(=O)NC(CCC(=O)O)C(=O)O)cc3)nc2c(=O)[nH]1 (centres unmarked) [compound 6] | – | – | – | – | 0.79 | 1.05 | – | 0.96 | 1.06 | 0.8 | 0.94 | 0.86 | 0.91 | –
6 | Nc1nc2[nH]cc(CCc3ccc(C(=O)N[C@@H](CCC(=O)O)C(=O)O)cc3)c2c(=O)[nH]1 [PTX, pemetrexed] | – | – | – | – | – | – | – | – | – | – | – | – | – | fold changes relative to vehicle control [1]: 0.98; fold changes relative to vehicle control [2]: 1.04; fold changes relative to vehicle control [3]: 0.74; fold changes relative to vehicle control [4]: 0.88; fold changes relative to vehicle control [5]: 0.85; fold changes relative to vehicle control [6]: 0.71; fold changes relative to vehicle control [7]: 1; fold changes relative to vehicle control [8]: 0.93
7 | Nc1nc2c(c(=O)[nH]1)N(C=O)C(CNc1ccc(C(=O)N[C@@H](CCC(=O)O)C(=O)O)cc1)CN2 (some centres unmarked) [LEU, leucovorin] | – | – | – | – | 0.73 | 0.97 | – | 0.99 | 0.9 | 0.76 | 0.93 | 1.15 | 0.95 | –
